According to US10087229B2, “Peptide compound” (TAKEDA PHARMACEUTICAL COMPANY LIMITED, priority 2013, dated 2018):
Square brackets hold non-standard residues; d marks the D form. Peptide text beside a SMILES is read from it. * marks the point of attachment. Tyr(Nα-amidino) = N=C(N)N[C@@H](Cc1ccc(O)cc1)C(=O)*; αMeY = C[C@](N)(Cc1ccc(O)cc1)C(=O)O; αMeF = C[C@](N)(Cc1ccccc1)C(=O)O; Aib = CC(C)(N)C(=O)O; Bz = O=C(c1ccccc1)*

System: male C57BL/6J mouse
Experiment: 2-days continuous subcutaneous administration test (feeding suppressive activity)
Format: in vivo
Conditions: 10 nmol/kg/day, subcutaneous Alzet pump, 2-days cumulative food consumption, control (solvent alone) = 0%
Procedure: 2-Days Continuous Subcutaneous Administration Test
The feeding suppressive activity of a test compound was examined by the method described below.
The test compound was dissolved in a solvent (50% DMSO) so that sustained release would occur at 10 nmol/kg/day, and the solution was filled in the Alzet Pump (DURECT Corporation, model: 1003D). The pump thus filled with the solution to be administered was immersed in physiological saline for priming, and then used. The pump was embedded by the following method. Each male C57BL/6J mouse at 8-9 weeks of age (20-26° C., allowed to take food and water ad libitum; 12-hour bright-12-hour dark cycle) was anesthetized; the skin in the upper back thereof was incised, and the above-mentioned pump was embedded subcutaneously; the incision was sutured. After weighing, this mouse was returned to the rearing cage (reared alone), and given previously weighed food; food consumption as of 2 days after the start of administration was measured. The food consumption was calculated by subtracting the amount of remaining food from the weight of the food given on the day of the start of administration. When the food consumption of a control group receiving administration of the solvent alone was regarded as a suppression rate of 0%, the feeding suppressive activity of each test compound was evaluated on the basis of 2-days cumulative food consumption after the start of administration. The food intake suppression rate (%) of the test compound was defined as (Food consumption of the control group−Food consumption of the test compound-administered group)/Food consumption of the control group×100.

Compared with `CC[C@H](C)[C@H](NC(=O)C(C)(C)NC(=O)[C@H](Cc1ccc(O)cc1)NC(=O)[C@H](CC(=O)O)NC(=O)[C@H](CO)NC(=O)[C@@H](NC(=O)[C@](C)(Cc1ccccc1)NC(=O)[C@@H](NC(=O)CNC(=O)[C@H](CCC(=O)O)NC(=O)C(C)(C)NC(=O)[C@H](Cc1ccc(O)cc1)NC(=O)c1ccccc1)[C@@H](C)O)[C@@H](C)O)C(=O)NC(C)(C)C(=O)N[C@@H](CC(C)C)C(=O)N[C@@H](CC(=O)O)C(=O)N[C@@H](CCCCN)C(=O)N[C@@H](CCC(N)=O)C(=O)N[C@@H](C)C(=O)N[C@@H](CCC(N)=O)C(=O)N[C@@H](C)C(=O)N[C@@H](CCC(=O)O)C(=O)N[C@@H](Cc1ccccc1)C(=O)N[C@H](C(=O)N[C@@H](CCCCN)C(=O)N[C@@H](Cc1c[nH]c2ccccc12)C(=O)N[C@@H](CC(C)C)C(=O)N[C@@H](CC(C)C)C(=O)N[C@@H](CCCCN)C(=O)NCC(=O)NCC(=O)N1CCC[C@H]1C(=O)N[C@@H](CO)C(=O)N[C@@H](CO)C(=O)NCC(=O)N[C@@H](C)C(=O)N1CCC[C@H]1C(=O)N1CCC[C@H]1C(=O)N1CCC[C@H]1C(=O)N[C@@H](CO)C(=O)N[C@@H](CCCCN)C(N)=O)C(C)C` [Example 19] (Bz-Y[Aib]EGT[αMeF]TSDY[Aib]I[Aib]LDKQAQAEFVKWLLKGGPSSGAPPPSK-NH2), `CC[C@H](C)[C@H](NC(=O)C(C)(C)NC(=O)[C@H](Cc1ccc(O)cc1)NC(=O)[C@H](CC(=O)O)NC(=O)[C@H](CO)NC(=O)[C@@H](NC(=O)[C@](C)(Cc1ccccc1)NC(=O)[C@@H](NC(=O)CNC(=O)[C@H](CCC(=O)O)NC(=O)C(C)(C)NC(=O)[C@H](Cc1ccc(O)cc1)NC(=N)N)[C@@H](C)O)[C@@H](C)O)C(=O)NC(C)(C)C(=O)N[C@@H](CC(C)C)C(=O)N[C@@H](CC(=O)O)C(=O)N[C@@H](CCCCN)C(=O)N[C@@H](CCC(N)=O)C(=O)N[C@@H](C)C(=O)N[C@@H](CCC(N)=O)C(=O)N[C@@H](C)C(=O)N[C@@H](CCC(=O)O)C(=O)N[C@@H](Cc1ccccc1)C(=O)N[C@H](C(=O)N[C@@H](CCCCN)C(=O)N[C@@H](Cc1c[nH]c2ccccc12)C(=O)N[C@@H](CC(C)C)C(=O)N[C@@H](CC(C)C)C(=O)N[C@@H](CCCCN)C(=O)NCC(=O)NCC(=O)N1CCC[C@H]1C(=O)N[C@@H](CO)C(=O)N[C@@H](CO)C(=O)NCC(=O)N[C@@H](C)C(=O)N1CCC[C@H]1C(=O)N1CCC[C@H]1C(=O)N1CCC[C@H]1C(=O)N[C@@H](CO)C(=O)N[C@@H](CCCCN)C(N)=O)C(C)C` [Example 22] ({Tyr(Nα-amidino)}-[Aib]EGT[αMeF]TSDY[Aib]I[Aib]LDKQAQAEFVKWLLKGGPSSGAPPPSK-NH2) is higher in “Food intake suppression (%)” value: 34.79% for the first, 35.51% for the second.

Going from `CC(C)C[C@H](NC(=O)[C@H](CC(C)C)NC(=O)[C@H](Cc1c[nH]c2ccccc12)NC(=O)[C@H](CCCCN)NC(=O)[C@@H](NC(=O)[C@H](Cc1ccccc1)NC(=O)[C@H](CCC(=O)O)NC(=O)[C@H](C)NC(=O)[C@H](CCC(N)=O)NC(=O)[C@H](C)NC(=O)[C@H](CCC(N)=O)NC(=O)[C@H](CCCCN)NC(=O)[C@H](CC(=O)O)NC(=O)[C@H](CC(C)C)NC(=O)C(C)(C)NC(=O)[C@H](C)NC(=O)C(C)(C)NC(=O)[C@H](Cc1ccc(O)cc1)NC(=O)[C@H](CC(=O)O)NC(=O)[C@H](CO)NC(=O)[C@@H](NC(=O)[C@](C)(Cc1ccccc1)NC(=O)[C@@H](NC(=O)CNC(=O)[C@H](CCC(=O)O)NC(=O)C(C)(C)NC(=O)[C@@H](N)Cc1ccc(O)cc1)[C@@H](C)O)[C@@H](C)O)C(C)C)C(=O)N[C@@H](CCCCN)C(=O)NCC(=O)NCC(=O)N1CCC[C@H]1C(=O)N[C@@H](CO)C(=O)N[C@@H](CO)C(=O)NCC(=O)N[C@@H](C)C(=O)N1CCC[C@H]1C(=O)N1CCC[C@H]1C(=O)N1CCC[C@H]1C(=O)N[C@@H](CO)C(=O)N[C@@H](CCCCN)C(N)=O` [Example 10] (H-Y[Aib]EGT[αMeF]TSDY[Aib]A[Aib]LDKQAQAEFVKWLLKGGPSSGAPPPSK-NH2) to `CC[C@H](C)[C@H](NC(=O)[C@H](C)NC(=O)[C@H](Cc1ccc(O)cc1)NC(=O)[C@H](CC(=O)O)NC(=O)[C@H](CO)NC(=O)[C@@H](NC(=O)[C@](C)(Cc1ccccc1)NC(=O)[C@@H](NC(=O)CNC(=O)[C@H](CCC(=O)O)NC(=O)C(C)(C)NC(=O)[C@@H](N)Cc1ccc(O)cc1)[C@@H](C)O)[C@@H](C)O)C(=O)NC(C)(C)C(=O)N[C@@H](CC(C)C)C(=O)N[C@@H](CC(=O)O)C(=O)N[C@@H](CCCCN)C(=O)N[C@@H](CCC(N)=O)C(=O)N[C@@H](C)C(=O)N[C@@H](CCC(N)=O)C(=O)N[C@@H](CO)C(=O)N[C@@H](CCC(=O)O)C(=O)N[C@@H](Cc1ccccc1)C(=O)N[C@H](C(=O)N[C@@H](CCCCN)C(=O)N[C@@H](Cc1c[nH]c2ccccc12)C(=O)N[C@@H](CC(C)C)C(=O)N[C@@H](CC(C)C)C(=O)N[C@@H](CCCCN)C(=O)NCC(=O)NCC(=O)N1CCC[C@H]1C(=O)N[C@@H](CO)C(=O)N[C@@H](CO)C(=O)NCC(=O)N[C@@H](C)C(=O)N1CCC[C@H]1C(=O)N1CCC[C@H]1C(=O)N1CCC[C@H]1C(=O)N[C@@H](CO)C(=O)N[C@@H](CCCCN)C(N)=O)C(C)C` [Example 3] (H-Y[Aib]EGT[αMeF]TSDYAI[Aib]LDKQAQSEFVKWLLKGGPSSGAPPPSK-NH2), the “Food intake suppression (%)” value falls from 62.04% to 46.49%.

First: CC(C)C[C@H](NC(=O)[C@H](CC(C)C)NC(=O)[C@H](Cc1c[nH]c2ccccc12)NC(=O)[C@H](CCCCN)NC(=O)[C@@H](NC(=O)[C@H](Cc1ccccc1)NC(=O)[C@H](CCC(=O)O)NC(=O)[C@H](C)NC(=O)[C@H](CCC(N)=O)NC(=O)[C@H](C)NC(=O)[C@H](CCC(N)=O)NC(=O)[C@H](CCCCN)NC(=O)[C@H](CC(=O)O)NC(=O)[C@H](CC(C)C)NC(=O)[C@](C)(Cc1ccccc1)NC(=O)[C@H](CCCCN)NC(=O)C(C)(C)NC(=O)[C@H](Cc1ccc(O)cc1)NC(=O)[C@H](CC(=O)O)NC(=O)[C@H](CO)NC(=O)[C@@H](NC(=O)[C@](C)(Cc1ccccc1)NC(=O)[C@@H](NC(=O)CNC(=O)[C@H](CCC(=O)O)NC(=O)C(C)(C)NC(=O)[C@@H](N)Cc1ccc(O)cc1)[C@@H](C)O)[C@@H](C)O)C(C)C)C(=O)N[C@@H](CCCCN)C(=O)NCC(=O)NCC(=O)N1CCC[C@H]1C(=O)N[C@@H](CO)C(=O)N[C@@H](CO)C(=O)NCC(=O)N[C@@H](C)C(=O)N1CCC[C@H]1C(=O)N1CCC[C@H]1C(=O)N1CCC[C@H]1C(=O)N[C@@H](CO)C(=O)N[C@@H](CCCCN)C(N)=O [Example 15] (H-Y[Aib]EGT[αMeF]TSDY[Aib]K[αMeF]LDKQAQAEFVKWLLKGGPSSGAPPPSK-NH2)
Second: CC[C@H](C)[C@H](NC(=O)C(C)(C)NC(=O)[C@H](Cc1ccc(O)cc1)NC(=O)[C@H](CC(=O)O)NC(=O)[C@H](CO)NC(=O)[C@@H](NC(=O)[C@](C)(Cc1ccccc1)NC(=O)[C@@H](NC(=O)CNC(=O)[C@H](CCC(=O)O)NC(=O)C(C)(C)NC(=O)[C@@H](N)Cc1ccc(O)cc1)[C@@H](C)O)[C@@H](C)O)C(=O)N[C@@](C)(Cc1ccc(O)cc1)C(=O)N[C@@H](CC(C)C)C(=O)N[C@@H](CC(=O)O)C(=O)N[C@@H](CCCCN)C(=O)N[C@@H](CCC(N)=O)C(=O)N[C@@H](C)C(=O)N[C@@H](CCC(N)=O)C(=O)N[C@@H](C)C(=O)N[C@@H](CCC(=O)O)C(=O)N[C@@H](Cc1ccccc1)C(=O)N[C@H](C(=O)N[C@@H](CCCCN)C(=O)N[C@@H](Cc1c[nH]c2ccccc12)C(=O)N[C@@H](CC(C)C)C(=O)N[C@@H](CC(C)C)C(=O)N[C@@H](CCCCN)C(=O)NCC(=O)NCC(=O)N1CCC[C@H]1C(=O)N[C@@H](CO)C(=O)N[C@@H](CO)C(=O)NCC(=O)N[C@@H](C)C(=O)N1CCC[C@H]1C(=O)N1CCC[C@H]1C(=O)N1CCC[C@H]1C(=O)N[C@@H](CO)C(=O)N[C@@H](CCCCN)C(N)=O)C(C)C [Example 17] (H-Y[Aib]EGT[αMeF]TSDY[Aib]I[αMeY]LDKQAQAEFVKWLLKGGPSSGAPPPSK-NH2)
The “Food intake suppression (%)” value of the first is higher: 58.80% for the first, 55.42% for the second.

`CC[C@H](C)[C@H](NC(=O)C(C)(C)NC(=O)[C@H](Cc1ccc(O)cc1)NC(=O)[C@H](CC(=O)O)NC(=O)[C@H](CO)NC(=O)[C@@H](NC(=O)[C@](C)(Cc1ccccc1)NC(=O)[C@@H](NC(=O)CNC(=O)[C@H](CCC(=O)O)NC(=O)C(C)(C)NC(=O)[C@@H](N)Cc1ccc(O)cc1)[C@@H](C)O)[C@@H](C)O)C(=O)NC(C)(C)C(=O)N[C@@H](CC(C)C)C(=O)N[C@@H](CC(=O)O)C(=O)N[C@@H](CCCCN)C(=O)N[C@@H](CCC(N)=O)C(=O)N[C@@H](C)C(=O)N[C@@H](CCC(N)=O)C(=O)N[C@@H](CO)C(=O)N[C@@H](CCC(=O)O)C(=O)N[C@@H](Cc1ccccc1)C(=O)N[C@H](C(=O)N[C@@H](CCCCN)C(=O)N[C@@H](Cc1c[nH]c2ccccc12)C(=O)N[C@@H](CC(C)C)C(=O)N[C@@H](CC(C)C)C(=O)N[C@@H](CCCCN)C(=O)NCC(=O)NCC(=O)N1CCC[C@H]1C(=O)N[C@@H](CO)C(=O)N[C@@H](CO)C(=O)NCC(=O)N[C@@H](C)C(=O)N1CCC[C@H]1C(=O)N1CCC[C@H]1C(=O)N1CCC[C@H]1C(=O)N[C@@H](CO)C(N)=O)C(C)C` [Example 8] (H-Y[Aib]EGT[αMeF]TSDY[Aib]I[Aib]LDKQAQSEFVKWLLKGGPSSGAPPPS-NH2) was tested, and the “Food intake suppression (%)” value was 48.34%.
